Assay results reported in ChEMBL document CHEMBL1153072, “Synthesis and structure-activity relationship of dicationic diaryl ethers as novel potent anti-MRSA and anti-VRE agents” (2009).
Values after ≈ are worked out from the molar mass of the structure shown.

How the values were obtained:
Assay type in all cases: functional
Staphylococcus aureus [1] = test: Antibacterial activity against Staphylococcus aureus ATCC 29213
Staphylococcus aureus [2] = test: Antibacterial activity against multidrug resistant Staphylococcus aureus BAA-39
Staphylococcus aureus [3] = test: Antibacterial activity against methicillin-resistant Staphylococcus aureus ATCC 33591
[4] = tested on: Staphylococcus epidermidis; test: Antibacterial activity against Staphylococcus epidermidis ATCC 12228
[5] = tested on: Staphylococcus epidermidis; test: Antibacterial activity against methicillin-resistant Staphylococcus epidermidis ATCC 51625
Streptococcus pneumoniae = test: Antibacterial activity against Streptococcus pneumoniae ATCC 6301
Enterococcus faecalis = test: Antibacterial activity against vancomycin-resistant Enterococcus faecalis ATCC 51575
Enterococcus faecium = test: Antibacterial activity against vancomycin-resistant Enterococcus faecium ATCC 700221
Bacillus subtilis = test: Antibacterial activity against Bacillus subtilis ATCC 23857
Bacillus cereus = test: Antibacterial activity against Bacillus cereus ATCC 11778
Bacteroides fragilis = test: Antibacterial activity against […] ATCC 23745
Clostridium perfringens = test: Antibacterial activity against Clostridium perfringens ATCC 10388
Candida albicans = test: Antifungal activity against Candida albicans ATCC 90028
[6] = Ratio of MIC for Candida albicans ATCC 90028 to MIC for methicillin-resistant Staphylococcus aureus ATCC 33591
[7] = Ratio of MIC for Candida albicans ATCC 90028 to MIC for vancomycin-resistant Enterococcus faecium ATCC 700221

SMILES	MIC (Staphylococcus aureus [1])	MIC (Staphylococcus aureus [2])	MIC (Staphylococcus aureus [3])	MIC [4]	MIC [5]	MIC (Streptococcus pneumoniae)	MIC (Enterococcus faecalis)	MIC (Enterococcus faecium)	MIC (Bacillus subtilis)	MIC (Bacillus cereus)	MIC (Bacteroides fragilis)	MIC (Clostridium perfringens)	MIC (Candida albicans)	Ratio [6]	Ratio [7]
N=C(c1ccc2[nH]c(-c3ccc(Oc4ccc(-c5nc6cc(C(=N)N7CCCCCC7)ccc6[nH]5)cc4)cc3)nc2c1)N1CCCCCC1	0.25 µg/mL (≈ 0.384 µM)	0.25 µg/mL (≈ 0.384 µM)	0.25 µg/mL (≈ 0.384 µM)	0.12 µg/mL (≈ 0.184 µM)	0.25 µg/mL (≈ 0.384 µM)	0.12 µg/mL (≈ 0.184 µM)	0.5 µg/mL (≈ 0.768 µM)	0.5 µg/mL (≈ 0.768 µM)	0.25 µg/mL (≈ 0.384 µM)	0.5 µg/mL (≈ 0.768 µM)	4 µg/mL (≈ 6.15 µM)	2 µg/mL (≈ 3.07 µM)	8 µg/mL (≈ 12.3 µM)		
CC(C)NC(=N)c1ccc2[nH]c(-c3ccc(Oc4ccc(-c5nc6cc(C(=N)NC(C)C)ccc6[nH]5)cc4)cc3)nc2c1	0.25 µg/mL (≈ 0.438 µM)	0.5 µg/mL (≈ 0.876 µM)	0.12 µg/mL (≈ 0.21 µM)	< 0.06 µg/mL	< 0.06 µg/mL	< 0.06 µg/mL	0.12 µg/mL (≈ 0.21 µM)	< 0.06 µg/mL	< 0.06 µg/mL	< 0.06 µg/mL	2 µg/mL (≈ 3.5 µM)	0.5 µg/mL (≈ 0.876 µM)	1 µg/mL (≈ 1.75 µM)		
CC(C)NC(=N)c1ccc2[nH]c(-c3ccc(Oc4ccc(-c5nc6cc(C(=N)NC(C)C)ccc6[nH]5)cc4Cl)cc3)nc2c1	0.25 µg/mL (≈ 0.413 µM)	0.25 µg/mL (≈ 0.413 µM)	0.25 µg/mL (≈ 0.413 µM)	≤ 0.06 µg/mL	≤ 0.06 µg/mL	≤ 0.06 µg/mL	0.25 µg/mL (≈ 0.413 µM)	≤ 0.06 µg/mL	0.12 µg/mL (≈ 0.198 µM)	0.12 µg/mL (≈ 0.198 µM)	16 µg/mL (≈ 26.4 µM)	0.5 µg/mL (≈ 0.826 µM)	1 µg/mL (≈ 1.65 µM)		
CCC(C)NC(=N)c1ccc2[nH]c(-c3ccc(Oc4ccc(-c5nc6cc(C(=N)NC(C)CC)ccc6[nH]5)cc4)cc3)nc2c1 (stereo not drawn)	0.5 µg/mL (≈ 0.835 µM)	0.5 µg/mL (≈ 0.835 µM)	0.25 µg/mL (≈ 0.418 µM)	0.12 µg/mL (≈ 0.2 µM)	0.12 µg/mL (≈ 0.2 µM)	< 0.06 µg/mL	0.25 µg/mL (≈ 0.418 µM)	< 0.06 µg/mL	< 0.06 µg/mL	< 0.06 µg/mL	16 µg/mL (≈ 26.7 µM)	0.5 µg/mL (≈ 0.835 µM)	2 µg/mL (≈ 3.34 µM)		
CC1CC(C)CN(C(=N)c2ccc3[nH]c(-c4ccc(Oc5ccc(-c6nc7cc(C(=N)N8CC(C)CC(C)C8)ccc7[nH]6)cc5)cc4)nc3c2)C1 (stereo not drawn)	0.5 µg/mL (≈ 0.737 µM)	0.5 µg/mL (≈ 0.737 µM)	0.25 µg/mL (≈ 0.368 µM)	0.25 µg/mL (≈ 0.368 µM)	0.5 µg/mL (≈ 0.737 µM)	0.5 µg/mL (≈ 0.737 µM)	1 µg/mL (≈ 1.47 µM)	0.5 µg/mL (≈ 0.737 µM)	0.25 µg/mL (≈ 0.368 µM)	1 µg/mL (≈ 1.47 µM)	4 µg/mL (≈ 5.89 µM)	2 µg/mL (≈ 2.95 µM)	8 µg/mL (≈ 11.8 µM)		
N=C(c1ccc2[nH]c(-c3ccc(Oc4ccc(-c5nc6cc(C(=N)N7CCCC7)ccc6[nH]5)cc4)cc3)nc2c1)N1CCCC1	0.25 µg/mL (≈ 0.42 µM)	0.5 µg/mL (≈ 0.841 µM)	0.25 µg/mL (≈ 0.42 µM)	0.12 µg/mL (≈ 0.202 µM)	0.12 µg/mL (≈ 0.202 µM)	< 0.06 µg/mL	0.25 µg/mL (≈ 0.42 µM)	< 0.06 µg/mL	< 0.06 µg/mL	0.12 µg/mL (≈ 0.202 µM)	2 µg/mL (≈ 3.36 µM)	0.5 µg/mL (≈ 0.841 µM)	4 µg/mL (≈ 6.73 µM)		
N=C(c1ccc2[nH]c(-c3ccc(Oc4ccc(-c5nc6cc(C(=N)N7CCSCC7)ccc6[nH]5)cc4)cc3)nc2c1)N1CCSCC1	0.5 µg/mL (≈ 0.759 µM)	0.5 µg/mL (≈ 0.759 µM)	0.25 µg/mL (≈ 0.379 µM)	0.12 µg/mL (≈ 0.182 µM)	0.25 µg/mL (≈ 0.379 µM)	0.25 µg/mL (≈ 0.379 µM)	0.5 µg/mL (≈ 0.759 µM)	0.5 µg/mL (≈ 0.759 µM)	0.25 µg/mL (≈ 0.379 µM)	0.5 µg/mL (≈ 0.759 µM)	4 µg/mL (≈ 6.07 µM)	1 µg/mL (≈ 1.52 µM)	16 µg/mL (≈ 24.3 µM)	32	32
N=C(c1ccc2[nH]c(-c3ccc(Oc4ccc(-c5nc6cc(C(=N)N7CCCCC7)ccc6[nH]5)cc4)cc3)nc2c1)N1CCCCC1	0.25 µg/mL (≈ 0.401 µM)	0.5 µg/mL (≈ 0.803 µM)	0.12 µg/mL (≈ 0.193 µM)	< 0.06 µg/mL	0.12 µg/mL (≈ 0.193 µM)	< 0.06 µg/mL	0.25 µg/mL (≈ 0.401 µM)	0.12 µg/mL (≈ 0.193 µM)	< 0.06 µg/mL	0.25 µg/mL (≈ 0.401 µM)	2 µg/mL (≈ 3.21 µM)	0.25 µg/mL (≈ 0.401 µM)	8 µg/mL (≈ 12.8 µM)		
CCC(CC)NC(=N)c1ccc2[nH]c(-c3ccc(Oc4ccc(-c5nc6cc(C(=N)NC(CC)CC)ccc6[nH]5)cc4)cc3)nc2c1	0.25 µg/mL (≈ 0.399 µM)	0.5 µg/mL (≈ 0.798 µM)	0.25 µg/mL (≈ 0.399 µM)	0.12 µg/mL (≈ 0.191 µM)	0.25 µg/mL (≈ 0.399 µM)	< 0.06 µg/mL	0.5 µg/mL (≈ 0.798 µM)	< 0.06 µg/mL	0.12 µg/mL (≈ 0.191 µM)	0.5 µg/mL (≈ 0.798 µM)	4 µg/mL (≈ 6.38 µM)	0.5 µg/mL (≈ 0.798 µM)	4 µg/mL (≈ 6.38 µM)		
N=C(c1ccc2[nH]c(-c3ccc(Oc4ccc(-c5nc6cc(C(=N)N7CCC(N8CCCC8)CC7)ccc6[nH]5)cc4)cc3)nc2c1)N1CCC(N2CCCC2)CC1	8 µg/mL (≈ 10.5 µM)	4 µg/mL (≈ 5.26 µM)	4 µg/mL (≈ 5.26 µM)	1 µg/mL (≈ 1.31 µM)	1 µg/mL (≈ 1.31 µM)	> 32 µg/mL	8 µg/mL (≈ 10.5 µM)	2 µg/mL (≈ 2.63 µM)	4 µg/mL (≈ 5.26 µM)	1 µg/mL (≈ 1.31 µM)	> 32 µg/mL	> 32 µg/mL	16 µg/mL (≈ 21 µM)		
COc1cc(Oc2ccc(-c3nc4cc(C(=N)NC(C)C)ccc4[nH]3)cc2)ccc1-c1nc2cc(C(=N)NC(C)C)ccc2[nH]1	0.5 µg/mL (≈ 0.832 µM)	0.5 µg/mL (≈ 0.832 µM)	0.25 µg/mL (≈ 0.416 µM)	≤ 0.06 µg/mL	0.12 µg/mL (≈ 0.2 µM)	≤ 0.06 µg/mL	0.5 µg/mL (≈ 0.832 µM)	≤ 0.06 µg/mL	≤ 0.06 µg/mL	0.12 µg/mL (≈ 0.2 µM)	> 32 µg/mL	0.25 µg/mL (≈ 0.416 µM)	2 µg/mL (≈ 3.33 µM)		
CC(C)NC(=N)c1ccc2[nH]c(-c3ccc(Oc4ccc(-c5nc6cc(C(=N)NC(C)C)ccc6[nH]5)c(Cl)c4)cc3)nc2c1	0.25 µg/mL (≈ 0.413 µM)	0.5 µg/mL (≈ 0.826 µM)	0.12 µg/mL (≈ 0.198 µM)	≤ 0.06 µg/mL	≤ 0.06 µg/mL	≤ 0.06 µg/mL	0.12 µg/mL (≈ 0.198 µM)	≤ 0.06 µg/mL	≤ 0.06 µg/mL	0.12 µg/mL (≈ 0.198 µM)	4 µg/mL (≈ 6.61 µM)	0.25 µg/mL (≈ 0.413 µM)	2 µg/mL (≈ 3.3 µM)		
COc1cc(Oc2ccc(-c3nc4cc(C(=N)NC(C)C)ccc4[nH]3)c(Cl)c2)ccc1-c1nc2cc(C(=N)NC(C)C)ccc2[nH]1	0.25 µg/mL (≈ 0.394 µM)	0.5 µg/mL (≈ 0.787 µM)	0.25 µg/mL (≈ 0.394 µM)	≤ 0.06 µg/mL	≤ 0.06 µg/mL	≤ 0.06 µg/mL	0.25 µg/mL (≈ 0.394 µM)	≤ 0.06 µg/mL	≤ 0.06 µg/mL	0.12 µg/mL (≈ 0.189 µM)	> 32 µg/mL	0.25 µg/mL (≈ 0.394 µM)	4 µg/mL (≈ 6.3 µM)		
CC1(C)S[C@@H]2[C@H](NC(=O)Cc3ccccc3)C(=O)N2[C@H]1C(=O)O [PENICILLIN G]	1 µg/mL (≈ 2.99 µM)	> 32 µg/mL	> 32 µg/mL	32 µg/mL (≈ 95.7 µM)	32 µg/mL (≈ 95.7 µM)	< 0.06 µg/mL	4 µg/mL (≈ 12 µM)	> 32 µg/mL	< 0.06 µg/mL	> 4 µg/mL	4 µg/mL (≈ 12 µM)	< 0.12 µg/mL	> 32 µg/mL		
CC(C)NC(=N)c1ccc2cc(-c3ccc(Oc4ccc(-c5cc6ccc(C(=N)NC(C)C)cc6[nH]5)cc4)cc3)[nH]c2c1	0.12 µg/mL (≈ 0.211 µM)	≤ 0.06 µg/mL	≤ 0.06 µg/mL	≤ 0.06 µg/mL	≤ 0.06 µg/mL	≤ 0.06 µg/mL	0.25 µg/mL (≈ 0.44 µM)	≤ 0.06 µg/mL	≤ 0.06 µg/mL	≤ 0.06 µg/mL	0.125 µg/mL (≈ 0.22 µM)	0.5 µg/mL (≈ 0.879 µM)	0.5 µg/mL (≈ 0.879 µM)	8	
